Data set [1] concerns the target T1, mouse DGAT1 (Mus musculus, UniProt Q9Z2A7).
T1 construct: made in house; host or cells: insect cells (High Five, Sf9, Sf21, etc.), baculovirus expression system (Invitrogen)
T1 sequence (Q9Z2A7 1-498): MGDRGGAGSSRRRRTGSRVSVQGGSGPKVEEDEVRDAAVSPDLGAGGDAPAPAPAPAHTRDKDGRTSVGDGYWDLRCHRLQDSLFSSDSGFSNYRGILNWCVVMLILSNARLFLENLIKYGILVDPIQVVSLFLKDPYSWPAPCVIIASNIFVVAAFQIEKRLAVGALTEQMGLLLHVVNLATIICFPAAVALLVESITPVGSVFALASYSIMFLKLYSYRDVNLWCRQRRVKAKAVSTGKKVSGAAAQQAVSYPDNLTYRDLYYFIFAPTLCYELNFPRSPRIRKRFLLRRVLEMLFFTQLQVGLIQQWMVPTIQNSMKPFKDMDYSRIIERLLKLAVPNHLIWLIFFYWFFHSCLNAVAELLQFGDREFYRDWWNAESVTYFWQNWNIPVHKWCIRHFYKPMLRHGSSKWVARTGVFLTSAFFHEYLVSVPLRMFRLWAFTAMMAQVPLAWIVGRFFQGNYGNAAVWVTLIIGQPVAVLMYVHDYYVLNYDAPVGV
Put plainly: DGAT1 inhibitory effect test (microsome fraction, [14C]-oleoyl-CoA, triglyceride radioactivity by TLC). Format: biochemical. The note with it: 0.5 h; concentration of the test compound 0.1 μg/ml; mouse DGAT1 microsomes, 23° C., 30 minutes; read-out: Inhibitory ratio. In outline:
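Inhibition was scored from radiolabelled triglyceride separated by TLC, relative to vehicle and net of a 0-min background. The reaction ran for 30 min at room temperature (23 °C) in Tris-HCl pH 8.0 with MgCl2, BSA and Triton X-100. Substrates were 30 μM [14C]-oleoyl-CoA and 0.5 mM dioleoylglycerol, with mouse DGAT1 microsomes from baculovirus-infected insect cells as enzyme.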

With `COc1cc(NC(=O)Nc2ccc3c(c2)CCN(C(=O)Nc2ccc(OCCO)cc2Cl)C3)cc(OC)c1` [Example 266, 6-[3-(3,5-dimethoxy-phenyl)-ureido]-3,4-dihydro-1H-isoquinoline-2-carboxylic acid [2-chloro-4-(2-hydroxy-ethoxy)-phenyl]-amide], the melting point was 105 to 110 °C. Further, the inhibition at 0.1 µg/mL in data set [1] is at least 50%.
Turning to `O=C(Nc1ccc2c(c1)CCN(C(=O)Nc1ccc(OCCO)cc1Cl)C2)Nc1ccccc1F` [Example 267, 6-[3-(2-fluoro-phenyl)-ureido]-3,4-dihydro-1H-isoquinoline-2-carboxylic acid [2-chloro-4-(2-hydroxy-ethoxy)-phenyl]-amide], the melting point lay in the range of 183 to 186 °C. Moreover, in data set [1], the inhibition at 0.1 µg/mL was at least 50%.
The corresponding values for `COc1ccc(C)cc1NC(=O)Nc1ccc(N2CCN(C(=O)Nc3ccc(OCCO)cc3Cl)CC2)nc1` [Example 268, 4-{5-[3-(2-methoxy-5-methyl-phenyl)-ureido]-pyridin-2-yl}-piperazine-1-carboxylic acid [2-chloro-4-(2-hydroxy-ethoxy)-phenyl]-amide] are 196 to 197 °C and at least 50%.
`COc1ccccc1NC(=O)Nc1ccc(N2CCN(C(=O)Nc3ccc(OCCO)cc3Cl)CC2)c(Cl)c1` [Example 269, 4-{2-chloro-4-[3-(2-methoxy-phenyl)-ureido]-phenyl}-piperazine-1-carboxylic acid [2-chloro-4-(2-hydroxy-ethoxy)-phenyl]-amide] came in with a melting point of 173 to 175 °C. Besides, in data set [1], the inhibition at 0.1 µg/mL was at least 50%.
The corresponding values for `COc1cccnc1NC(=O)Nc1ccc(N2CCN(C(=O)Nc3ccc(OCCO)cc3Cl)CC2)cc1` [Example 270, 4-{4-[3-(3-methoxy-pyridin-2-yl)-ureido]-phenyl}-piperazine-1-carboxylic acid [2-chloro-4-(2-hydroxy-ethoxy)-phenyl]-amide] are 215 to 216 °C and at least 50%.
The corresponding values for `Cc1nc(NC(=O)Nc2ccc(N3CCN(C(=O)Nc4ccc(OCCO)cc4Cl)CC3)nc2)sc1C` [Example 271, 4-{5-[3-(4,5-dimethyl-thiazol-2-yl)-ureido]-pyridin-2-yl}-piperazine-1-carboxylic acid [2-chloro-4-(2-hydroxy-ethoxy)-phenyl]-amide] are 184 to 185 °C and at least 50%.
On to `Cc1nc(NC(=O)Nc2ccc(N3CCN(C(=O)Nc4ccc(OCCO)cc4Cl)CC3)cc2)sc1C` [Example 272, 4-{4-[3-(4,5-dimethyl-thiazol-2-yl)-ureido]-phenyl}-piperazine-1-carboxylic acid [2-chloro-4-(2-hydroxy-ethoxy)-phenyl]-amide], for which the melting point is 186 to 187 °C. In addition, in data set [1], the inhibition at 0.1 µg/mL is at least 50%.
The corresponding values for `COc1ccc(C)cc1NC(=O)Nc1ccc(C2=CCN(C(=O)Nc3cc(OCCO)ccc3Cl)CC2)cc1` [Example 273, 4-{4-[3-(2-methoxy-5-methyl-phenyl)-ureido]-phenyl}-3,6-dihydro-2H-pyridine-1-carboxylic acid [2-chloro-5-(2-hydroxy-ethoxy)-phenyl]-amide] are 139 to 142 °C and at least 50%.
The corresponding values for `COc1ccc(C)cc1NC(=O)Nc1ccc(C2CCN(C(=O)Nc3cc(OCCO)ccc3Cl)CC2)cc1` [Example 274, 4-{4-[3-(2-methoxy-5-methyl-phenyl)-ureido]-phenyl}-piperidine-1-carboxylic acid [2-chloro-5-(2-hydroxy-ethoxy)-phenyl]-amide] are 202 to 205 °C and at least 50%.
The corresponding values for `COc1ccc(C)cc1NC(=O)Nc1ccc(N2CCN(C(=O)Nc3ccc(OCC(O)CO)cc3C(F)(F)F)CC2)cc1` (stereo not drawn) [Example 275, 4-{4-[3-(2-methoxy-5-methyl-phenyl)-ureido]-phenyl}-piperazine-1-carboxylic acid [4-(2,3-dihydroxy-propoxy)-2-trifluoromethyl-phenyl]-amide] are 187 to 190 °C and at least 50%.
In turn, `COc1ccc(C)cc1NC(=O)Nc1ccc(N2CCN(C(=O)Nc3ccc(OCC(O)CO)cc3C)CC2)cc1` (stereo not drawn) [Example 276, 4-{4-[3-(2-methoxy-5-methyl-phenyl)-ureido]-phenyl}-piperazine-1-carboxylic acid [4-(2,3-dihydroxy-propoxy)-2-methyl-phenyl]-amide] gave a melting point of 148 to 150 °C. The inhibition at 0.1 µg/mL in data set [1] was at least 50%.
The corresponding values for `COc1ccc(C)cc1NC(=O)Nc1ccc(N2CCN(C(=O)Nc3ccc(OCC(O)CO)cc3Cl)CC2)cc1` (stereo not drawn) [Example 277, 4-{4-[3-(2-methoxy-5-methyl-phenyl)-ureido]-phenyl}-piperazine-1-carboxylic acid [2-chloro-4-(2,3-dihydroxy-propoxy)-phenyl]-amide] are 134 to 136 °C and at least 50%.
The corresponding values for `O=C(Nc1ccc(N2CCN(C(=O)Nc3ccc(OCC(O)CO)cc3Cl)CC2)cc1)Nc1ccccc1F` (stereo not drawn) [Example 278, 4-{4-[3-(2-fluoro-phenyl)-ureido]-phenyl}-piperazine-1-carboxylic acid [2-chloro-4-(2,3-dihydroxy-propoxy)-phenyl]-amide] are 189 to 190 °C and at least 50%.
The corresponding values for `COc1ccc(F)cc1NC(=O)Nc1ccc(N2CCN(C(=O)Nc3ccc(OCC(O)CO)cc3C(F)(F)F)CC2)nc1` (stereo not drawn) [Example 279, 4-{5-[3-(5-fluoro-2-methoxy-phenyl)-ureido]-pyridin-2-yl}-piperazine-1-carboxylic acid [4-(2,3-dihydroxy-propoxy)-2-trifluoromethyl-phenyl]-amide] are 195 °C and at least 50%.
`COc1ccc(C)cc1NC(=O)Nc1ccc2c(c1)CCN(C(=O)Nc1ccc(OCC(O)CO)cc1Cl)C2` (stereo not drawn) [Example 280, 6-[3-(2-methoxy-5-methyl-phenyl)-ureido]-3,4-dihydro-1H-isoquinoline-2-carboxylic acid [2-chloro-4-(2,3-dihydroxy-propoxy)-phenyl]-amide]: the melting point was 119 to 121 °C. In data set [1], the inhibition at 0.1 µg/mL was at least 50%.
Take `COc1ccc(C)cc1NC(=O)Nc1ccc(C2=CCN(C(=O)Nc3ccc(OCC(O)CO)cc3Cl)CC2)cc1` (stereo not drawn) [Example 281, 4-{4-[3-(2-methoxy-5-methyl-phenyl)-ureido]-phenyl}-3,6-dihydro-2H-pyridine-1-carboxylic acid [2-chloro-4-(2,3-dihydroxy-propoxy)-phenyl]-amide]: the melting point is 125 to 128 °C. Moreover, the inhibition at 0.1 µg/mL in data set [1] is at least 50%.
The corresponding values for `COc1ccc(C)cc1NC(=O)Nc1ccc(C2=CCN(C(=O)Nc3ccc(OCC(O)CO)cc3C(F)(F)F)CC2)cc1` (stereo not drawn) [Example 282, 4-{4-[3-(2-methoxy-5-methyl-phenyl)-ureido]-phenyl}-3,6-dihydro-2H-pyridine-1-carboxylic acid [4-(2,3-dihydroxy-propoxy)-2-trifluoromethyl-phenyl]-amide] are 135 to 137 °C and at least 50%.
For `COc1ccc(C)cc1NC(=O)Nc1ccc(C2CCN(C(=O)Nc3ccc(OCC(O)CO)cc3Cl)CC2)cc1` (stereo not drawn) [Example 283, 4-{4-[3-(2-methoxy-5-methyl-phenyl)-ureido]-phenyl}-piperidine-1-carboxylic acid [2-chloro-4-(2,3-dihydroxy-propoxy)-phenyl]-amide], the melting point was 179 to 181 °C. In addition, the inhibition at 0.1 µg/mL in data set [1] was at least 50%.
The compound `COc1ccccc1NC(=O)Nc1ccc2c(c1)CCN(C(=O)Nc1ccc(OCC(O)CO)cc1Cl)C2` (stereo not drawn) [Example 284, 6-[3-(2-methoxy-phenyl)-ureido]-3,4-dihydro-1H-isoquinoline-2-carboxylic acid [2-chloro-4-(2,3-dihydroxy-propoxy)-phenyl]-amide] yielded a melting point of 107 to 111 °C. Further, the inhibition at 0.1 µg/mL in data set [1] is at least 50%.
Consider `COc1cc(NC(=O)Nc2ccc3c(c2)CCN(C(=O)Nc2ccc(OCC(O)CO)cc2Cl)C3)cc(OC)c1` (stereo not drawn) [Example 285, 6-[3-(3,5-dimethoxy-phenyl)-ureido]-3,4-dihydro-1H-isoquinoline-2-carboxylic acid [2-chloro-4-(2,3-dihydroxy-propoxy)-phenyl]-amide], for which the melting point was in the range of 108 to 110 °C. Besides, the inhibition at 0.1 µg/mL in data set [1] is at least 50%.
The corresponding values for `COc1ccccc1NC(=O)Nc1ccc(C2=CCN(C(=O)Nc3ccc(OCC(O)CO)cc3Cl)CC2)cc1` (stereo not drawn) [Example 286, 4-{4-[3-(2-methoxy-phenyl)-ureido]-phenyl}-3,6-dihydro-2H-pyridine-1-carboxylic acid [2-chloro-4-(2,3-dihydroxy-propoxy)-phenyl]-amide] are 103 to 107 °C and at least 50%.

Usually melting point stands for the temperature of the solid-liquid transition.

The values above are taken from patent US20070249620A1, “Urea Derivative” (priority 2004, published 2007).
